Measured values: patent US20150313824A1, “SKIN CARE COMPOSITION” (Conopco, Inc., d/b/a UNILEVER, priority 2013, published 2015)

Test system: EA.Hy926 cells
Experiment: Measurement of intracellular nitric oxide using flow-cytometry (DAF FM-DA)
Type: cell-based, human
Details: for NO activity: with or without folic acid pretreatment 24 hrs, then EGCG stimulation 30 mins, DAF FM-DA fluorescence compared with untreated cells (1.0 = no increase over untreated sample)
Description: The cultured human endothelial cell line EA.Hy926 cells were procured from American Type Culture Collection ([…]) and were cultured in DMEM (Sigma) supplemented with 2 mM L-glutamine, 100 U/ml penicillin, 100 μg/ml streptomycin and 10% vol/vol FBS (Gibco, Invitrogen). Cells were cultured at 37° C. in 95% humidified air with 5% CO2. After attaining 70-80% confluence, the cells were sub-cultured by trypsinization (0.25% Tryp-EDTA, for 2-3 min). For experimental purpose, cells were seeded onto 24 well tissue culture plates (CLS3524 Sigma). […] Measurement of Intracellular Nitric Oxide Using Flow-Cytometry Experimental Flow: […] EAHy926 (5×10^5) cells were seed into 24 well tissue culture plate and allowed to adhere for 12-16 hrs. 2. After adherence, cells were treated with or without 4.41 μg/ml (10 μM) folic acid and incubated for 24 hrs in DMEM without FBS. 3. The cells in 24 well tissue culture plates were loaded with DAF FM-DA (1 μM) for 30 min, washed twice with serum free medium. 4. Subsequently, cells were stimulated with different concentration of EGCG for 30 mins and washed twice with serum free medium. 5. The stimulated cells were trypsinized with 0.25% Trypsin-EDTA and fixed with 2% PFA for 15 min. 6. The suspension of cells were acquired using flow-cytometry. A population of 10,000 cells were gated and segregated based on their relative fluorescence intensities using FACS Calibur (BD; SanDiego). The mean yield of two distinct populations was measured and compared with the respective population in untreated cells. The data on the Nitric Oxide activity is summarized in Table-1 for the various compositions which may be […] catechins (EGCG) alone at various concentrations or folic acid alone or EGCG in combination with folic acid.

In the case of `O=C(O[C@@H]1Cc2c(O)cc(O)cc2O[C@@H]1c1cc(O)c(O)c(O)c1)c1cc(O)c(O)c(O)c1` [EGCG, (−)-epigallocatechin gallate], the “NO activity, effect of increasing concentration or of combination (in words)” value (summary of the data in Table-1) is reported as “increases NO activity till an EGCG concentration of about 11 μg and thereafter the NO activity decreases”.
In the case of `O=C(O[C@@H]1Cc2c(O)cc(O)cc2O[C@@H]1c1cc(O)c(O)c(O)c1)c1cc(O)c(O)c(O)c1` [Example 2, EGCG], the NO activity is reported as 2.87.
`O=C(O[C@@H]1Cc2c(O)cc(O)cc2O[C@@H]1c1cc(O)c(O)c(O)c1)c1cc(O)c(O)c(O)c1` [Example 3, EGCG] gave an NO activity of 2.98.
`O=C(O[C@@H]1Cc2c(O)cc(O)cc2O[C@@H]1c1cc(O)c(O)c(O)c1)c1cc(O)c(O)c(O)c1` [Example 4, EGCG] showed an NO activity of 3.75.
For `O=C(O[C@@H]1Cc2c(O)cc(O)cc2O[C@@H]1c1cc(O)c(O)c(O)c1)c1cc(O)c(O)c(O)c1` [Example 5, EGCG], the NO activity was 3.58.
With `O=C(O[C@@H]1Cc2c(O)cc(O)cc2O[C@@H]1c1cc(O)c(O)c(O)c1)c1cc(O)c(O)c(O)c1` [Example 6, EGCG] the NO activity was 2.32.
`O=C(O[C@@H]1Cc2c(O)cc(O)cc2O[C@@H]1c1cc(O)c(O)c(O)c1)c1cc(O)c(O)c(O)c1` [Example 7, EGCG] gave an NO activity of 1.64.
Compound `O=C(O[C@@H]1Cc2c(O)cc(O)cc2O[C@@H]1c1cc(O)c(O)c(O)c1)c1cc(O)c(O)c(O)c1` [Example 8, EGCG] has an NO activity of 0.63.
